Results published in patent US5387512A, “Preparation of 3-[z-benzoxazol-2-yl)ethyl]-5-(1-hydroxyethyl)-6-methyl-2-(1H)-pyridinon e by biotransformation” (Merck & Co. Inc., priority 1992, dated 1995).

Experiments:
[1] = Incubation With Rat Liver Slices; format: in vitro ADME
Description: Incubation of tritiated 3-[2-(benzoxazol-2-yl)ethyl]-5-ethyl-6-methyl-2-(1H)-pyridinone (parent compound/14.18 μmol) with rat liver slices (6.1 g) in 100 ml of Williams Medium E at pH. […] Ethyl acetate extraction gave a recovery of ~70% of the tritiated material, while ~25% (~9 HPLC peaks) remained in the aqueous residue.

[2] = target: T1, recombinant HIV reverse transcriptase (HIV RTR) (Human immunodeficiency virus type 1 group M subtype B, UniProt P04585); experiment: Reverse Transcriptase Assay; format: biochemical; conditions: incorporation of [3H]dGMP into acid-precipitable cDNA; dGTP and poly r(C).oligo d(G)12-18 at Km; 37° C., 45 minutes; read-out: calculated IC50 value
T1 construct: recombinant HIV reverse transcriptase (HIV RTR)
Description: The assay measures the incorporation of tritiated deoxyguanosine monophosphate by recombinant HIV reverse transcriptase (HIV RTR) (or other RT) into acid-precipitable cDNA at the Km values of dGTP and poly r(C).oligo d(G)12-18.
Thirty uL of a reaction mixture containing equal volumes of: 500 mM Tris.HCl (pH 8.2), 300 mM MgCl2, 1200 mM KCl, 10 mM DTT, 400 μg/mL poly r(c).oligo d(G) [prepared by dissolving 1.5 mg (25 U) poly r(C).oligo d(G) in 1.5 ml sterile distilled H2 O and diluting to 400 μg/ml], 0.1 μCi/μl [^3 H] dGTP, 160 μM dGTP, was added to 10 μl sterile distilled H2 O, and 2.5 μl of potential inhibitor. An aliquot of 10 μL of 5 nM purified HIV RTR was added to initiate the reaction. The mixture was incubated at 37° C. for 45 minutes.
After incubation is complete, the tubes were cooled in ice for 5 minutes. Ice-cold 13% TCA containing 10 mM NaPPi (200 μl) are added and the mixture incubated on ice for 30 minutes. The precipitated cDNA is removed by filtration using presoaked glass filters [TCA, NaPPi ]. The precipitate is then washed with 1N HCl, 10 mM NaPPi.
The filter discs are then counted in a scintillation counter.
Under these conditions [dGTP] and poly r(C).oligo d(G)12-18 each are approximately equal to the appropriate Km value. Approximately 5-6,000 cpm of [^3 H] GMP are incorporated into acid-precipitable material. The RT reaction is concentration- and time-dependent.

SMILES | radioactive HPLC peak, share of the total metabolites ([1]; ethyl acetate extract after four hours incubation of parent compound with rat liver slices) | IC50 [2] | metabolised at 4 h ([1]; tritiated compound 14.18 μmol, rat liver slices 6.1 g, Williams Medium E, pH 7.4, 37° C., four hours, read-out: metabolism)
Cc1[nH]c(=O)c(CCc2nc3ccccc3o2)cc1C(C)O (stereo not drawn) [compound (I), 3-[2-(benzoxazol-2-yl)ethyl]-5-(1-hydroxyethyl)-6-methyl-2(1H)-pyridinone] | ~ 37% | ~710 nM | –
CCc1cc(CCc2nc3ccccc3o2)c(O)nc1C [parent compound, 3-[2-(Benzoxazol-2-yl)ethyl]-5-ethyl-6-methyl-2-(1H)-pyridinone] | – | – | ~32%
